# Key:
# CaMKII = molecular target: T1, CaMKII (Rattus norvegicus, UniProt P11275); assay: Reconstituted enzyme assay, CaMKII; assay type: biochemical; settings: γ-[32P]-ATP, synthetic peptide substrate; mean ± SEM; read-out: IC50 CaMKII
# T1 construct: purchased New England Biolabs
# Protocol: (§1) [table] […] The rationale for using BV-2 cells in high throughput screening was the paucity of well-characterized human microglial cell lines, and the relevant activation responses and signaling pathways reflect those seen in human and rodent primary microglial cultures. Compounds were tested for their effects on NO accumulation in conditioned media of LPS-stimulated BV-2 cells by measurement of nitrite production by the Griess assay as a read-out for iNOS activity, as described previously. Stock solutions of compounds were prepared in dimethylsulfoxide (DMSO) or in water. When stock solutions were prepared in DMSO, control wells contained the same final concentration of DMSO as the compound-containing wells. […] Solutions of compounds for cell treatments were diluted to a 10× final concentration by dilution of stock solutions in αMEM media. […] Reconstituted enzyme assays were done as described s. The sources of protein kinases were: bovine heart PKA from Promega, rat brain PKC from Calbiochem, rat CaMKII from New England Biolabs, chicken gizzard MLCK prepared as described, and a p38 MAP kinase kit containing recombinant Xenopus p38-MAPK and its human substrate from Upstate Biotechnology. The catalytic domains of these protein kinases retain a high level of amino acid sequence identity across mammalian species, consistent with the lack of documented major differences across species for the in vitro catalytic activity of a given kinase.
# protein kinase C (PKC) = assay: Reconstituted enzyme assay, PKC; assay type: biochemical, rat; settings: γ-[32P]-ATP, synthetic peptide substrate; read-out: IC50 PKC
# Protocol: as §1
# BV-2 cells = assay: Western blot of transcription factor and kinase phosphorylation in LPS-treated BV-2 cells; assay type: cell-based, murine; settings: compound 10 μM
# Protocol: FIG. 2. Selective effects of compound 1 (MW01-070C) on glial activation responses and gene-regulating protein kinase pathways. BV-2 cells and rat astrocytes were treated with control buffer (C) or stimulated with LPS or Aβ1-42 peptide in the presence or absence of compound 1, and cell lysates were analyzed by Western blots. (A) Astrocytes treated with LPS and compound 1 show concentration-dependent inhibition of iNOS and IL-1β production but not GFAP. (B) Astrocytes treated with A β1-42 and compound 1 (10 μM) show inhibition of iNOS and IL-1β but not apoE and COX-2. (C) BV-2 cells treated with LPS and compound 1 (10 μM) show inhibition of phosphorylated (p-) CREB but not p-p38 and p-ATF2, as assayed with antibodies that are specific for the phosphorylated forms of the proteins. Data are expressed as percent control (mean±SD; n=3 determinations).
# FIG. 7. Effects of MW01-070C on phosphorylation of transcription factors and an upstream activating kinase. BV-2 cells were incubated for 4 hr with control buffer (lane 1), 500 ng/ml LPS (lane 2), or […] LPS+10 μM MW01-070C (lane 3). The levels of phosphorylated (p-) ATF2, p38, and CREB were determined by Western blot of cell lysates, using antibodies that are specific for the phosphorylated forms of these proteins.
# For analysis of transcription factor phosphorylation, BV-2 cells were plated at 2×10^5 cells/well in a 12-well tissue culture plate, and grown for 48 hrs in αMEM containing 10% FBS. Immediately before treatment, media was removed, cells were rinsed with PBS, and media changed to serum-free αMEM. Cells were then treated for 4 hrs with control buffer or LPS (500 ng/ml) in the presence or absence of MW01-070C (10 μM), and cell lysates harvested for Western blot analysis.
# Cell lysates were prepared and Western blots were done as previously described [Petrova, T. V., Akama, K. T., and Van Eldik, L. J. (1999) Proc Natl Acad Sci USA 96, 4668-4673] using equal volumes of cell extracts per gel lane. The following antibodies were used: monoclonal anti-iNOS (1:1000 dilution, Transduction Labs); polyclonal anti-rat IL-1β (1:1000 dilution, R&D Systems, Inc.); monoclonal anti-glial fibrillary acidic protein (GFAP) (1:[…] dilution, Sigma); polyclonal anti-rat apoE (1:15,000 dilution) prepared as described [LaDu, M. J., Shah, J. A., Reardon, K., Getz, G. S., Bu, G., Hu, J., Guo, L., and Van Eldik, L. J. (2000) J. Biol. Chem. 275, 33974-33980]; polyclonal anti-COX-2 (1:500 dilution) and monoclonal anti-phosphoATF2 (1:1000 dilution) from Santa Cruz Biotechnology; polyclonal anti-phosphoCREB (1:1000 dilution), polyclonal anti-phosphop38 MAPK (1:1000 dilution), polyclonal anti-phosphop90RSK (1:1000 dilution), and monoclonal anti-phosphoERK1/2 (1:1000 dilution) from Cell Signaling.
# cell culture = assay: Cytotoxicity in cell culture; assay type: cell-based; settings: over the entire dose range of inhibitor
# Description: The inhibition of iNOS and IL-1β production by MW01-070C, however, is not limited to LPS stimulation. […] The rationale for examination of Aβ stimulation is its involvement as an initiating event in models of AD initiation and progression. The stimulation by Aβ is seen (FIG. 6) with preparations of the Aβ peptide (see Experimental Procedures) that are known to have neurotoxic activity [Hu, J., Akama, K. T., Krafft, G. A., Chromy, B. A., and Van Eldik, L. J. (1998) Brain Res. 785, 195-206; Lambert, M. P. Barlow, A. K., Chromy, B. A., Edwards, C., Freed, R., Liosatos, M., Morgan, T. E., Rozovsky, I., Trommer, B., Viola, K. L., Wals, P., Zhang, C., Finch, C. E., Kraffk, G. A., and Klein, W. L. (1998) Proc. Natl. Acad. Sci. USA 95, 6448-6453]. The rationale for examination of S100 stimulation is its presence as an astrocyte protein that can function as an autocrine and paracrine cytokine, and its increased production in AD and other neuroinflammatory related disorders [Griffin, W. S. T., Stanley, L. C., Ling, C., White, L., MacLeod, V., Perrot, L. J., White, C. L., III, and Araoz, C. (1989) Proc. Natl. Acad. Sci. USA 86, 7611-7615; Hu, J., Castets, F., Guevara, J. L., and Van Eldik, L. J. (1996) J. Biol. Chem. 271, 2543-2547; Donato, R. (1999) Biochim. Biophys. Acta 1450, 191-231; Van Eldik, L. J., and Griffin, W. S. T. (1994) Biochim. Biophys. Acta 1223, 398-403]. […]
# T1 sequence (P11275 1-325 limits assumed): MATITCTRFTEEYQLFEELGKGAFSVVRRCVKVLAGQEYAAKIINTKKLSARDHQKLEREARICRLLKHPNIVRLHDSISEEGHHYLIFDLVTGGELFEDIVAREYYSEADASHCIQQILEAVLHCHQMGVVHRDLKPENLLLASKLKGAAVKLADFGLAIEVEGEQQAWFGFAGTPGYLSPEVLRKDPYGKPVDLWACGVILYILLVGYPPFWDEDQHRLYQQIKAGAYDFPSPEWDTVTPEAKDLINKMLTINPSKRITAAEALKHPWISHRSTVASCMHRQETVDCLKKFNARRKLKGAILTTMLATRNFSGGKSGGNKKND
smiles,measurement,setting,value
N=c1cc2c(nn1CCCCCCCCCCC(=O)N1CCN(c3ncccn3)CC1)-c1ccccc1CC2 [MW01-070C],IC50,CaMKII,9.7 ± 1.9 µM
same,IC50,protein kinase C (PKC),> 100 µM
same,phosphorylated ATF2,BV-2 cells,does not inhibit
same,phosphorylated p38 MAPK,BV-2 cells,not blocked
same,phosphorylation of CREB,BV-2 cells,inhibited
same,phosphorylated p38 MAPK,BV-2 cells; listed as 1,does not inhibit
same,phosphorylation of CREB,BV-2 cells; listed as 1,inhibits
same,cytotoxicity in cell culture,cell culture,no evidence of cytotoxicity

# Source: patent US7888357B2, “Anti-inflammatory and protein kinase inhibitor compositions and related methods for downregulation of detrimental cellular responses and inhibition of cell death” (Northwestern University, priority 2001, dated 2011)
